Results from patent publication US7998965B2, “Glutamate aggrecanase inhibitors” (Wyeth LLC, priority 2005, dated 2011).
Where two headings read alike, the source gives them in different places.

What was measured:
[1] = target: T1, purified recombinant human Aggrecanase-1 (rAgg1) (Homo sapiens, UniProt O75173); assay: In vitro fluorescence screen for Aggrecanase-1 inhibitors; format: biochemical; design: Agg1 % at concentration: scale not given here; settings: for IC50: read-out: Agg1 IC50
T1 sequence (O75173 213-837): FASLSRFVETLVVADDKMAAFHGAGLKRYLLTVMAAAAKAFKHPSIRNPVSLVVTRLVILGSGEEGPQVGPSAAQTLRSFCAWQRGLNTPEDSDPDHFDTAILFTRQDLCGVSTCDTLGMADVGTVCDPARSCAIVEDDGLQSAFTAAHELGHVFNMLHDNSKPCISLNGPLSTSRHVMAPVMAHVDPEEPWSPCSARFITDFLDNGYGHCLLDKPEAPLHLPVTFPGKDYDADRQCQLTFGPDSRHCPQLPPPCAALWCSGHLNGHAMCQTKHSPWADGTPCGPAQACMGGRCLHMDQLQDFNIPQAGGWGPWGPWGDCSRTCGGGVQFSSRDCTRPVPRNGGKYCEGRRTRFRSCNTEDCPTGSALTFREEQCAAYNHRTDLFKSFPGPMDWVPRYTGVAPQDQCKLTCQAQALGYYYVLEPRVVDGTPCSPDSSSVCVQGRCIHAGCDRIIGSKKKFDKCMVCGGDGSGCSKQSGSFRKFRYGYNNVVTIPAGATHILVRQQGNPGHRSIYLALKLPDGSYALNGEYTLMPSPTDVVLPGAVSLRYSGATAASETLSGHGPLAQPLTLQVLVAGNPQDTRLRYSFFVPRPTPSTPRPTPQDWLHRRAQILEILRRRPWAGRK

[2] = target: T2, purified recombinant human Aggrecanase-2 (Ag2t-Phe628-Strep) (Homo sapiens, UniProt Q9UNA0); assay: In vitro fluorescence screen for Aggrecanase-2 inhibitors; format: biochemical; settings: for IC50: read-out: Agg 2 IC50
T2 construct: the form used is denoted as Ag2t-Phe628-Strep (MW=41,737)
T2 sequence (Q9UNA0 262-628): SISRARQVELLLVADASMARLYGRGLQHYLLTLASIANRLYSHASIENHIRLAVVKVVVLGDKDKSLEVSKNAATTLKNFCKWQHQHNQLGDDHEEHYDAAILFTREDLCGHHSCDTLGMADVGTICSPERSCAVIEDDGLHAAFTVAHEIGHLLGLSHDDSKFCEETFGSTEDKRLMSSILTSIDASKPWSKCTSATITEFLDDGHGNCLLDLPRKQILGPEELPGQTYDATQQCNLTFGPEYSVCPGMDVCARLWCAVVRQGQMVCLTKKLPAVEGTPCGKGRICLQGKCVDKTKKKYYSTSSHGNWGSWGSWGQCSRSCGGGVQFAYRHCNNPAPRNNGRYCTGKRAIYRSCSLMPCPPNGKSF

SMILES	IC50 ([1]; Table 3) [nM]	IC50 ([1]; Table 2) [nM]	IC50 ([2]; Table 2) [nM]	also measured
CC(C)(Cc1ccc(Cl)cc1)NC(=O)[C@H](CCC(=O)O)NC(=O)c1ccc(-c2cccnc2)s1 [Example 8JJJJJJJJ, N-[2-(4-chlorophenyl)-1,1-dimethylethyl]-N^2-[(5-pyridin-3-yl-2-thienyl)carbonyl]-L-α-glutamine]	< 30			IC50 ([2]; Table 3): 800 to 2500 nM
CC(C)(Cc1ccc(Cl)cc1)NC(=O)[C@H](CCC(=O)O)NC(=O)c1cccc(-c2ccc(Cl)s2)c1 [Example 8JJJJJJJJJ, N-[2-(4-chlorophenyl)-1,1-dimethylethyl]-N^2-[3-(5-chloro-2-thienyl)benzoyl]-L-α-glutamine]				Agg1 % at concentration ([1]; Table 3, at 25000 (nM)): 25%; Agg 2 % at concentration ([2]; Table 3, at 25000 (nM)): 10%
O=C(O)CC[C@H](NC(=O)c1ccc(-c2ccccc2)cc1)C(=O)NCCc1ccc(Br)cc1 [Example 8KKK, N^2-(biphenyl-4-ylcarbonyl)-N^1-[2-(4-bromophenyl)ethyl]-L-α-glutamine]				IC50 ([1]; Table 1): 120 nM; IC50 ([2]; Table 1): 2000 nM
O=C(O)CC[C@H](NC(=O)C1c2ccccc2-c2ccccc21)C(=O)NCc1ccccc1 [Example 8KKKKK, N^1-benzyl-N^2-(9H-fluoren-9-ylcarbonyl)-L-α-glutamine]		> 50000	> 22000	
C[C@@H](CNC(=O)[C@H](CCC(=O)O)NC(=O)c1ccc(-c2ccccc2)cc1)c1ccccc1 [Example 8KKKKKK, N^2-(biphenyl-4-ylcarbonyl)-N-[(2R)-2-phenylpropyl]-L-α-glutamine]		350	1670	
CC(C)(Cc1ccc(Cl)s1)NC(=O)[C@H](CCC(=O)O)NC(=O)c1ccc(-c2ccc(F)c(Cl)c2)s1 [Example 8KKKKKKK, N^2-{[5-(3-chloro-4-fluorophenyl)-2-thienyl]carbonyl}-N-[2-(5-chloro-2-thienyl)-1,1-dimethylethyl]-L-α-glutamine]	< 30			IC50 ([2]; Table 3): < 30 nM
O=C(O)CC[C@H](NC(=O)c1cccc(Oc2ccccc2)c1)C(=O)NCc1ccccc1 [Example 8LLLLL, N^1-benzyl-N^2-(3-phenoxybenzoyl)-L-α-glutamine]		> 17000	> 200000	
CC(C)(Cc1ccc(F)cc1)NC(=O)[C@H](CCC(N)=O)NC(=O)c1ccc(-c2ccccc2)cc1 [Example 8LLLLLL, N^2-(biphenyl-4-ylcarbonyl)-N^1-[2-(4-fluorophenyl)-1,1-dimethylethyl]-L-α-glutamamide]		> 25000	> 100000	
COc1cc(CNC(=O)[C@H](CCC(=O)O)NC(=O)c2ccc(-c3ccc(CO)cc3)cc2)cc(OC)c1OC [Example 8LLLLLLL, N^2-{[4′-(hydroxymethyl)biphenyl-4-yl]carbonyl}-N-(3,4,5-trimethoxybenzyl)-L-α-glutamine]	228			IC50 ([2]; Table 3): 3380 nM
CCC(C)(C)NC(=O)[C@H](CCC(=O)O)NC(=O)c1ccc(-c2ccccc2)cc1 [Example 8MM, N^2-(biphenyl-4-ylcarbonyl)-N^1-(1,1-dimethylpropyl)-L-α-glutamine]				Ki ([1]; Table 1, enzyme not given, column follows Agg1 IC50, read-out: Ki): 126 nM; IC50 ([1]; Table 1): 58 nM; IC50 ([2]; Table 1): 980 nM
O=C(O)CC[C@H](NC(=O)c1ccc(-c2ccccc2)cc1)C(=O)NCCc1cccc(Br)c1 [Example 8MMM, N^2-(biphenyl-4-ylcarbonyl)-N^1-[2-(3-bromophenyl)ethyl]-L-α-glutamine]				IC50 ([1]; Table 1): 40 nM; IC50 ([2]; Table 1): 500 nM
CC(C)(NC(=O)[C@H](CCC(=O)O)NC(=O)c1ccc2c(c1)C(=O)c1ccccc1-2)c1ccccc1 [Example 8MMMMM, N^1-(1-methyl-1-phenylethyl)-N^2-[(9-oxo-9H-fluoren-2-yl)carbonyl]-L-α-glutamine]		20000	~22000	
O=C(O)CC[C@H](NC(=O)c1ccc(-c2ccccc2)cc1)C(=O)N[C@H](CO)Cc1ccccc1 [Example 8MMMMMM, N-[(1S)-1-benzyl-2-hydroxyethyl]-N^2-(biphenyl-4-ylcarbonyl)-L-α-glutamine]		550	5100	
COc1cc(CNC(=O)[C@H](CCC(=O)O)NC(=O)c2ccc(-c3ccc(CBr)cc3)cc2)cc(OC)c1OC [Example 8MMMMMMM, N^2-{[4′-(bromomethyl)biphenyl-4-yl]carbonyl}-N-(3,4,5-trimethoxybenzyl)-L-α-glutamine]	198			IC50 ([2]; Table 3): 614 nM
CC(C)(NC(=O)[C@H](CCC(=O)O)NC(=O)C1c2ccccc2-c2ccccc21)c1ccccc1 [Example 8NNNNN, N^2-(9H-fluoren-9-ylcarbonyl)-N^1-(1-methyl-1-phenylethyl)-L-α-glutamine]		1200	1890	
O=C(O)CC[C@H](NC(=O)c1ccc(-c2ccccc2)cc1)C(=O)NCCC(c1ccccc1)c1ccccc1 [Example 8OOO, N^2-(biphenyl-4-ylcarbonyl)-N^1-(3,3-diphenylpropyl)-L-α-glutamine]				IC50 ([1]; Table 1): 280 nM; IC50 ([2]; Table 1): 1000 nM
CC(C)(NC(=O)[C@H](CCC(=O)O)NC(=O)c1cccc(Oc2ccccc2)c1)c1ccccc1 [Example 8OOOOO, N^1-(1-methyl-1-phenylethyl)-N^2-(3-phenoxybenzoyl)-L-α-glutamine]		> 50000	> 200000	
CC(C)(Cc1ccc(F)cc1)NC(=O)[C@H](CCC(=O)O)NC(=O)c1ccc(-c2ccco2)cc1 [Example 8OOOOOOO, N-[2-(4-fluorophenyl)-1,1-dimethylethyl]-N^2-[4-(2-furyl)benzoyl]-L-α-glutamine]	< 30			IC50 ([2]; Table 3): 100 to 400 nM
CC(C)(Cc1ccccc1)NC(=O)[C@H](CCC(=O)O)NC(=O)c1ccc(-c2ccccc2)s1 [Example 8OOOOOOOO, N-(1,1-dimethyl-2-phenylethyl)-N^2-[(5-phenyl-2-thienyl)carbonyl]-L-α-glutamine]	< 30			IC50 ([2]; Table 3): 200 to 600 nM
C[C@H](NC(=O)[C@H](CCC(=O)O)NC(=O)c1ccc(-c2ccccc2)cc1)c1ccccc1 [Example 8PPPPP, N^2-(biphenyl-4-ylcarbonyl)-N^1-[(1S)-1-phenylethyl]-L-α-glutamine]		157	2970	
Cc1cccc(CNC(=O)[C@H](CCC(=O)O)NC(=O)c2ccc(-c3ccc(CO)cc3)cc2)c1 [Example 8PPPPPPP, N^2-{[4′-(hydroxymethyl)biphenyl-4-yl]carbonyl}-N-(3-methylbenzyl)-L-α-glutamine]	3120			inhibition at 16.7 µM ([2]; Table 3, at 16700 (nM), read-out: Agg 2 % at concentration): 48%
C[C@H](NC(=O)[C@H](CCC(=O)O)NC(=O)c1ccc2c(c1)Cc1ccccc1-2)c1ccccc1 [Example 8QQQQQ, N^2-(9H-fluoren-2-ylcarbonyl)-N^1-[(1S)-1-phenylethyl]-L-α-glutamine]		108	1160	
CCCCCNC(=O)[C@H](CCC(=O)O)NC(=O)c1ccc(-c2ccccc2)cc1 [Example 8RRR, N^2-(biphenyl-4-ylcarbonyl)-N^1-pentyl-L-α-glutamine]				IC50 ([1]; Table 1): 82 nM; IC50 ([2]; Table 1): 680 nM
C[C@H](NC(=O)[C@H](CCC(=O)O)NC(=O)c1ccc(-c2ccccc2)cc1)c1ccc(F)cc1 [Example 8RRRRR, N^2-(biphenyl-4-ylcarbonyl)-N1-[(1S)-1-(4-fluorophenyl)ethyl]-L-α-glutamine]		129	2900	
CC(C)(Cc1ccc(F)cc1)NC(=O)[C@H](CCC(=O)O)NC(=O)c1ccc(-c2ccc3c(c2)CCO3)cc1 [Example 8RRRRRRR, N^2-[4-(2,3-dihydro-1-benzofuran-5-yl)benzoyl]-N-[2-(4-fluorophenyl)-1,1-dimethylethyl]-L-α-glutamine]	70 to 210			inhibition at 1.2 µM ([2]; read-out: Agg 2 % at concentration): 48%
CC(NC(=O)[C@H](CCC(=O)OC(C)(C)C)NC(=O)c1ccc(-c2ccccc2)cc1)c1ccccc1 (stereo partly drawn) [Example 8SSSSS, tert-butyl N^2-(biphenyl-4-ylcarbonyl)-N^1-(1-Phenylethyl)-L-α-glutaminate]		208	2470	
CC(C)(Cc1ccc(F)cc1)NC(=O)[C@H](CCC(=O)O)NC(=O)c1ccc(-c2ccc(F)c(Cl)c2)cc1 [Example 8SSSSSSS, N^2-[(3′-chloro-4′-fluorobiphenyl-4-yl)carbonyl]-N-[2-(4-fluorophenyl)-1,1-dimethylethyl]-L-α-glutamine]	57			Ki ([1]; Table 3, read-out: Ki Agg1): 22 nM; IC50 ([2]; Table 3): 230 nM; Ki ([2]; Table 3, read-out: Ki Agg2): 356 nM
O=C(O)CC[C@H](NC(=O)c1ccc(Oc2ccccc2)cc1)C(=O)NCCCCCCO [Example 8TTTT, N^1-(6-hydroxyhexyl)-N^2-(4-phenoxybenzoyl)-L-α-glutamine]		> 17000	> 22000	
